Measurements published in US20080039442A1, “Compounds With Kv4 Ion Channel Activity” (Devgen NV, priority 2004, published 2008).
pIC50: −log10 of the molar value. Where two headings read alike, the source gives them in different places.

Target: T1, human Kv4.3/KChIP2.2 potassium channel (Homo sapiens, UniProt Q9UK17)
T1 construct: expressed in transfected cells
T1 sequence (Q9UK17 1-655): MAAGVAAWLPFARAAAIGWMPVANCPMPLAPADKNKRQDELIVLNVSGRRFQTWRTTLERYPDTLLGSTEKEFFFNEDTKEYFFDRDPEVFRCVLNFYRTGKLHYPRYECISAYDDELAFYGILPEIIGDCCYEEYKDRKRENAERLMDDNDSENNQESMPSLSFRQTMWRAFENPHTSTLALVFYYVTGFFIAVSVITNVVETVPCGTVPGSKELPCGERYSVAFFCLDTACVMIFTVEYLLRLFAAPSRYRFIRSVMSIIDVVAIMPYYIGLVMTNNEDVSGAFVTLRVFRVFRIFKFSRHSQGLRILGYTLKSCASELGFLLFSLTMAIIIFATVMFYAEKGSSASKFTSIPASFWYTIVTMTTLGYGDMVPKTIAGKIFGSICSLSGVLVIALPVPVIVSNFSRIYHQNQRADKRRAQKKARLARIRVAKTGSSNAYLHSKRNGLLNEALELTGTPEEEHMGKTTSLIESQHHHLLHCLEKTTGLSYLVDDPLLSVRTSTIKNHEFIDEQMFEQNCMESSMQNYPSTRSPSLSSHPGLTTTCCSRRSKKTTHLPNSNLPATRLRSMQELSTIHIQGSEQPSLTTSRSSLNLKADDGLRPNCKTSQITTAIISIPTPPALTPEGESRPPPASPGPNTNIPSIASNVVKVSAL
T1 sequence (Q9NS61 1-270 partner): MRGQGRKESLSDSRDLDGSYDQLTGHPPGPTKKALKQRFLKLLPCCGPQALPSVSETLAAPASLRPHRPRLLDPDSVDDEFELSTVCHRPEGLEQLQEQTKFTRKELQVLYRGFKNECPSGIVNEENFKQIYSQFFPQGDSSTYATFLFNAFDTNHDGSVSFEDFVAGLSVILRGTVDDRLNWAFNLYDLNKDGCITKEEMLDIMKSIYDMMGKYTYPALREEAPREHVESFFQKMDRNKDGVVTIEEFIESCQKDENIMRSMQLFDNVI
Test: Whole cell patch clamp, CHO-K1 cells stably expressing Kv4.3/KChIP2.2
Assay type: cell-based
Conditions: for IC50: read-out: IC50 (μM) Kv4.3; for pIC50: Table 12, read-out: Kv4.3 charge IC50; for remaining activity at 1 µM: CHO-K1
How it was run: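 Whole-cell patch clamp at 20-25 °C, bath pH 7.4 with 4 mM KCl, pipette 130 mM KCl/10 mM EGTA/5 mM Na2ATP. Compound at […] (≤0.1% DMSO), n=2; pulses from −100 mV to +40 mV for 300 ms at 0.1 Hz, P/n (n=5) leak-corrected, cells with 1–50 nA currents only.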

[1] = Table 6, estimated from 2 μM, hill=1, ymax=100
[2] = read-out: Kv4.3 charge in %: remaining current measured after application of the compound and relative to the blank
[3] = read-out: Kv4.3 peak in %: remaining peak height measured after application of the compound and relative to the blank

Compound | IC50 (Table 9) [µM] | pIC50 | remaining activity at 1 µM [2] [%] | remaining activity at 1 µM [3] [%] | IC50 [1] [µM]
5-chloro-benzofuran-2- carboxylic acid 2,4- dimethoxy- benzylamide [Compound 2] | 1.75 | 5.76 | – | – | 1.75
5-chloro-benzofuran-2- carboxylic acid [3- (10,11-dihydro- dibenzo[a,d]cyclohepten- 5-ylidene)-propyl]- methyl-amide [Compound 5] | – | 4.80 | – | – | 16
C[C@@H](NC(=O)c1cc2cc(Cl)ccc2o1)c1ccc([N+](=O)[O-])cc1 [Compound 1, 5-chloro-benzofuran-2-carboxylic acid [(R)-1-(4-nitro-phenyl)-ethyl]-amide] | – | 5.68 | – | – | –

The next lines start with results.

IC50 (Table 9) [µM] | pIC50 | remaining activity at 1 µM [2] [%] | remaining activity at 1 µM [3] [%] | Compound | IC50 [1] [µM]
– | – | 37 | 77 | O=C(NCc1ccc(OC(F)(F)F)cc1)c1cc2cc(Cl)ccc2o1 [Compound 89, 5-chloro-benzofuran-2-carboxylic acid 4-trifluoromethoxy-benzylamide] | –
– | – | 30 | 87 | Cc1c(C(=O)NCc2ccc(F)c(C(F)(F)F)c2)sc2ccc(Cl)cc12 [Compound 107, 5-chloro-3-methyl-benzo[b]thiophene-2-carboxylic acid 4-fluoro-3-trifluoromethyl-benzylamide] | –
